Activity calls are given as the source filed them.
Legend:
[1] = molecular target: Steroidogenic factor 1 (Homo sapiens, UniProt Q13285); assay: Counterscreen for inverse agonists of the liver receptor homolog-1 (LRH-1; NR5A2): Luminescence-based cell-based high throughput dose response assay to identify inverse agonists of the Steroidogenic Factor 1 Nuclear Receptor (SF1; NR5A1).; assay type: functional
[2] = molecular target: Nuclear receptor subfamily 5 group A member 2 (Homo sapiens, UniProt O00482); assay type: functional, cell-based;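 further: HEK293T cells transfected with LRH-1 and a StAR promoter luciferase reporter; potency for inhibitors that lower LRH-1 driven reporter light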
[3] = StAR promoter reporter inhibition counter-screen, dose response, counter-screen for LRH-1 inverse agonist project, cell-based, luminescence, luciferase reporter (AID 651969); assay type: functional
[4] = molecular target: T1, Corticotropin-releasing factor receptor 2/Corticotropin-releasing factor-binding protein (Homo sapiens, UniProt P24387+Q13324); assay: Dose Response confirmation of uHTS hits for small molecule antagonists of the CRF-binding protein and CRF-R2 receptor complex.; assay type: functional; settings: read-out: IC50_Mean
T1 sequence (Q13324 whole entry): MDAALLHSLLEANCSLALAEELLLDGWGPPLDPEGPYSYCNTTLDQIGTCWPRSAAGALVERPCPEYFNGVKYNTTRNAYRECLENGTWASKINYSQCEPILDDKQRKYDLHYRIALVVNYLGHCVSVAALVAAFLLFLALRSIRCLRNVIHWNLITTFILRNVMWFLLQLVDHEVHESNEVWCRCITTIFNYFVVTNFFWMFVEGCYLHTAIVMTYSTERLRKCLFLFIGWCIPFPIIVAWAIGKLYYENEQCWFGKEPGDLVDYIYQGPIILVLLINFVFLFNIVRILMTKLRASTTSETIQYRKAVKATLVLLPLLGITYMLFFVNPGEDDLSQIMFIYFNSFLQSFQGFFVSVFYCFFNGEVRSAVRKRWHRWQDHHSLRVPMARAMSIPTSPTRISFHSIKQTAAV
T1 sequence (P24387 whole entry): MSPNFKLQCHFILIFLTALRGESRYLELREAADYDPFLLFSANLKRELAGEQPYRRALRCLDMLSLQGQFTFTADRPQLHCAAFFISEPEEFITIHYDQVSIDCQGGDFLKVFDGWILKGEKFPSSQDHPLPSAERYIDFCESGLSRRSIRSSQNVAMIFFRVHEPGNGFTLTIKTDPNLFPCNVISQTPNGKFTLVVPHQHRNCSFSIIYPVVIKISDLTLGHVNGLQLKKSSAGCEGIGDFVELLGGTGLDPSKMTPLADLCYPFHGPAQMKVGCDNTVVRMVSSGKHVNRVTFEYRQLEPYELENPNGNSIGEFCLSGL

[5] = C. albicans growth with fluconazole, confirmation, fluorescence, retest (AID 2467); assay type: functional, cell-based
[6] = molecular target: T2, Short transient receptor potential channel 4 (Mus musculus, UniProt Q9QUQ5); assay: mouse TRPC4 channel inhibitors, dose response, cell-based, HEK293 TRPC4/mu-opioid, Fluo-4 calcium (AID 434942); assay type: functional;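 further: potency of inhibitors blocking the TRPC4 calcium response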
T2 sequence (Q9QUQ5 whole entry): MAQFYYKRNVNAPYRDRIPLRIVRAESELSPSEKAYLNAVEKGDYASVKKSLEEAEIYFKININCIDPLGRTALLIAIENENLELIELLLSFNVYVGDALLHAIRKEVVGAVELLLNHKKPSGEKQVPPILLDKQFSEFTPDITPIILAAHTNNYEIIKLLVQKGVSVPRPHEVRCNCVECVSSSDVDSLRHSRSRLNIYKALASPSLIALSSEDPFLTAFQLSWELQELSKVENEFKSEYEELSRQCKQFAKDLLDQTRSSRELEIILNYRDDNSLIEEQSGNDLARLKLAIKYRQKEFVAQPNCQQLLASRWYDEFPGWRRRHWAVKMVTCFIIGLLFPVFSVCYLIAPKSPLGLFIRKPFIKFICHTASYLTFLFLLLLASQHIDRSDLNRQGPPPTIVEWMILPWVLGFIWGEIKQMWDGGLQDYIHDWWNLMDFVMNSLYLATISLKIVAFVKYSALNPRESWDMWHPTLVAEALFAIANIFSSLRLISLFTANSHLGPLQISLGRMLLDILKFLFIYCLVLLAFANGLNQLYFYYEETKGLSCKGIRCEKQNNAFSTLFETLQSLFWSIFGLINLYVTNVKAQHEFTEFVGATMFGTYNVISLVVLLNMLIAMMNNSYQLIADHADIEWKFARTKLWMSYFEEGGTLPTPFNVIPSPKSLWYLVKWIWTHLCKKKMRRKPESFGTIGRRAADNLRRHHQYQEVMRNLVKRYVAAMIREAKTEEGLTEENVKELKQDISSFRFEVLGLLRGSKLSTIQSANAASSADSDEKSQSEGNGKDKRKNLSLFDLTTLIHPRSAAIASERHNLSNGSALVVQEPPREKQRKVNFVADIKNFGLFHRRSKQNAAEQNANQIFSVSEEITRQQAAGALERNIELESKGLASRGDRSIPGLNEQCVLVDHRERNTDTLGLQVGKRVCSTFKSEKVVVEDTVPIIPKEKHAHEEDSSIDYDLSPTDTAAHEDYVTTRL

[7] = NIH-3T3 fibroblast cytotoxicity, dose response, cytotoxicity control, cell-based, fluorescence, Alamar Blue, secondary assay (AID 2327); assay type: functional;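 further: NIH-3T3 mouse fibroblasts cultured with fluconazole at 8 µg/mL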
[8] = CRF-BP/CRF-R2 complex antagonists, dose response, cell-based, uHTS hits, 384-well (AID 651639); assay type: functional, Homo sapiens; settings: read-out: IC50_Mean
[9] = molecular target: Troponin, cardiac muscle (Homo sapiens, UniProt P19429+P45379+P63316); assay: Fluorescence-based biochemical high throughput dose response assay for activators of the calcium sensitivity of cardiac Regulated Thin Filaments (RTF). [Related pubchem assays (depositor defined):AID493008, AID493018, AID504382, AID504383]; assay type: protein-complex assay
[10] = molecular target: T1, Corticotropin-releasing factor receptor 2/Corticotropin-releasing factor-binding protein; assay: activators of CRF receptor 2 with binding protein – uHTS hits, confirmation (AID 602473); assay type: functional; settings: read-out: EC50_Mean
[11] = HeLa cell cytotoxicity, dose response, cytotoxicity control for MgcRacGAP inhibitor project (AID 624300); assay type: functional
[12] = molecular target: T3, Rac GTPase-activating protein 1 (Homo sapiens, UniProt Q9H0H5); assay: MgcRacGAP GTPase-activating activity inhibitors, confirmation, biochemical, ADP Hunter fluorescence, primary and confirmatory (AID 624330); assay type: functional
T3 sequence (Q9H0H5 whole entry): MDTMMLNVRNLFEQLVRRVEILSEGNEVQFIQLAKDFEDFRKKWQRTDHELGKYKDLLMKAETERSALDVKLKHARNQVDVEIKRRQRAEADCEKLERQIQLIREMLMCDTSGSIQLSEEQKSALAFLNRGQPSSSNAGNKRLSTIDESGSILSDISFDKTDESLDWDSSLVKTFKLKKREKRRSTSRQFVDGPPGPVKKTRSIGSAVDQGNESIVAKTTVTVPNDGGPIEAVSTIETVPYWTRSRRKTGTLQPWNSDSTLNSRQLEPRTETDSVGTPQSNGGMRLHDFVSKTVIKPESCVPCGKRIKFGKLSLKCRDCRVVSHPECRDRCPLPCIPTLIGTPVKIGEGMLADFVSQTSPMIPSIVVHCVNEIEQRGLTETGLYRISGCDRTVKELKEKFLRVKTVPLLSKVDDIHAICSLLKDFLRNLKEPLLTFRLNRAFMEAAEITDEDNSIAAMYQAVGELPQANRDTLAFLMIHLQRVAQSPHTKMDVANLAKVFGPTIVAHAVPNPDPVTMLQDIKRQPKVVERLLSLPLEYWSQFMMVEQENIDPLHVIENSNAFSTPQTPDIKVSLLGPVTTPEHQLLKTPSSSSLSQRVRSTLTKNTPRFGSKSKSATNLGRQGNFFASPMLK

[13] = molecular target: T4, Replicative DNA helicase DnaB (Mycobacterium tuberculosis, UniProt P9WMR3); assay: DnaB intein splicing inhibitors, dose response, biochemical, cell-free fluorescence (AID 449749); assay type: functional
T4 sequence (P9WMR3 whole entry): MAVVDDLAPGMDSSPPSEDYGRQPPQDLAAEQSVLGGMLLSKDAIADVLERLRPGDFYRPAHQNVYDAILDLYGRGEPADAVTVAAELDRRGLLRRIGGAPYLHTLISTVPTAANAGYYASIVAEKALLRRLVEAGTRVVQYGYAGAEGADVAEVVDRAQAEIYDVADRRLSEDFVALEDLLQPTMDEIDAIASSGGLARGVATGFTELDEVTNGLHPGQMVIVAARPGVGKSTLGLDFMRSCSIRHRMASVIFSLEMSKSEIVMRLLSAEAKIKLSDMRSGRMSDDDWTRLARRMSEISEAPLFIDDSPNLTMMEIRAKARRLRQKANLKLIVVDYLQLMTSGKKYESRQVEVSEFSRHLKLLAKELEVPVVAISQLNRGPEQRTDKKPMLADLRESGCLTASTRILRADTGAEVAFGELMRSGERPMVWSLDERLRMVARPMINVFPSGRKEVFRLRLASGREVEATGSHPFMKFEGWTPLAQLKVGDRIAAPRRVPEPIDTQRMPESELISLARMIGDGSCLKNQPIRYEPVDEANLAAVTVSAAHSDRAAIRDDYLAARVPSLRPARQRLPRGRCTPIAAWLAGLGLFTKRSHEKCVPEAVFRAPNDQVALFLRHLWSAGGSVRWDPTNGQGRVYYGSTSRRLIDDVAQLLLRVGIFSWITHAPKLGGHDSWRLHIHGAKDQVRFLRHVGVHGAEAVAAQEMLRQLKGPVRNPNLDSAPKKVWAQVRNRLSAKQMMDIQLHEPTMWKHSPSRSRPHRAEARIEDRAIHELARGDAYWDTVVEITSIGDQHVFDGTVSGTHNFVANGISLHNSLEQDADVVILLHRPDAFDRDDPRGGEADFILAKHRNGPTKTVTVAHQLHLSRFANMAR

[14] = molecular target: T5, Protein RecA (Mycobacterium tuberculosis, UniProt P9WHJ3); assay: Fluorescence Cell-Free Homogeneous Dose Retest to Identify Inhibitors of RecA-Intein Splicing Activity. [Related pubchem assays (depositor defined):AID2097, AID2223, AID489010, AID492950]; assay type: functional
T5 sequence (P9WHJ3 whole entry): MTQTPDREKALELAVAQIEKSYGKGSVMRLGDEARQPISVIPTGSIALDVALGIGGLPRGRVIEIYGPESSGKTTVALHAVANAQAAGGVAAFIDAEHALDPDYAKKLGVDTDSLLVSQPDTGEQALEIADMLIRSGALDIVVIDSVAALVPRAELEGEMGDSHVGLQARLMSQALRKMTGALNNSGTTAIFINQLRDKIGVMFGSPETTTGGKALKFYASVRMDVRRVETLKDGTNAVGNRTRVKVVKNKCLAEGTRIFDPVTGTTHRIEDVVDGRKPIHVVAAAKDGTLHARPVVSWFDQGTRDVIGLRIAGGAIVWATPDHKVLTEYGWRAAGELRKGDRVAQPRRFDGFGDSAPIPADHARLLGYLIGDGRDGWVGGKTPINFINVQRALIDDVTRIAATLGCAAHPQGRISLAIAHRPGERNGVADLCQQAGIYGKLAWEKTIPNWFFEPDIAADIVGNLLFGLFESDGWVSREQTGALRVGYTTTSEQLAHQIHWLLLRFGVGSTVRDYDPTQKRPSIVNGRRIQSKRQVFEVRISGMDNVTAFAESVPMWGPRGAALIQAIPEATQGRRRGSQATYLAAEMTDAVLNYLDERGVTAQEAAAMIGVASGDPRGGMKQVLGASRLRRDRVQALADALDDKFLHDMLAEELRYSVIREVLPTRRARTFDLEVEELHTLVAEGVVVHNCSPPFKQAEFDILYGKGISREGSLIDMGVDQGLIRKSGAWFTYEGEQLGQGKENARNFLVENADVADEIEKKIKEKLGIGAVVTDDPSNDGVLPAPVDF

[15] = THP-1 cell cytotoxicity, dose response, cytotoxicity control for non-replicating M. tuberculosis project (AID 489025); assay type: functional
[16] = Vero E6 cell cytotoxicity, dose response, cytotoxicity control for non-replicating M. tuberculosis project, secondary assay (AID 492998); assay type: functional, VeroE6; settings: Vero C1008
[17] = cells; assay type: functional

Structure (SMILES)	IC50 [1]	IC50 [2]	IC50 [3]	IC50 [4]	IC50 [8]	EC50 [10]	further results
CC(O)(c1ccc(F)c(F)c1)c1nc(-c2ccc(S(C)(=O)=O)cc2)cs1 (stereo unspecified)	1.91 µM (active)	11.3 µM (inactive)	35.8 µM (inactive)				
O=C(O)c1ccc(NC(=S)NC(=O)c2ccc(-c3ccccc3)cc2)cc1				6.04 µM (active)	5.93 µM (active)	> 53 µM (inactive)	EC50 [5]: 1.28 µM (active); EC50 [6]: 4.73 µM (active); EC50 [7]: > 150 µM (inactive); EC50 [9]: > 71.5 µM (inactive)
COc1cc(/C=N/NC(=S)NC2CC3CCC2C3)ccc1O (stereo unspecified)							CC50 [11]: 100 µM (active); IC50 [12]: 48.8 µM (active)
COc1ccc(N2C(=O)CSC23C(=O)N2c4c(cccc43)C(C)=CC2(C)C)cc1 (stereo unspecified)				11 µM (active)	4.46 µM (active)	> 53 µM (inactive)	AC50 [13]: 10.3 µM (active); EC50 [14]: 35.6 µM (active)
COc1ccc(-c2cc3nc(C4CCN(C(=O)OC(C)(C)C)CC4)c(C(=O)O)cn3n2)cc1				13.1 µM (active)	7.23 µM (active)	> 53 µM (inactive)	
Oc1nc(Nc2ccc3c(c2)OCCO3)nnc1Cc1ccccc1	1.87 µM (active)	35.9 µM (inactive)	35.9 µM (inactive)				EC50 [5]: > 38 µM (not active); EC50 [7]: > 160 µM (inconclusive)
Cc1onc(-c2ccccc2Cl)c1C(=O)ON=C(N)c1ccc([N+](=O)[O-])o1	0.309 µM (active)	0.495 µM (active)	35.9 µM (inactive)				CC50 [15]: 17.9 µM (active); CC50 [16]: 14.9 µM (active); IC50 [17]: 2.13 µM (active)

Reference: ChEMBL document CHEMBL1201862, “PubChem BioAssay data set” (2004)
